According to ChEMBL document CHEMBL1143327, “Carbonic anhydrase inhibitors: inhibition studies of a coral secretory isoform with inorganic anions” (Bioorg Med Chem Lett, 2009):

Target: Carbonic anhydrase 4 (Homo sapiens, UniProt P22748)
Sequence (P22748 whole entry): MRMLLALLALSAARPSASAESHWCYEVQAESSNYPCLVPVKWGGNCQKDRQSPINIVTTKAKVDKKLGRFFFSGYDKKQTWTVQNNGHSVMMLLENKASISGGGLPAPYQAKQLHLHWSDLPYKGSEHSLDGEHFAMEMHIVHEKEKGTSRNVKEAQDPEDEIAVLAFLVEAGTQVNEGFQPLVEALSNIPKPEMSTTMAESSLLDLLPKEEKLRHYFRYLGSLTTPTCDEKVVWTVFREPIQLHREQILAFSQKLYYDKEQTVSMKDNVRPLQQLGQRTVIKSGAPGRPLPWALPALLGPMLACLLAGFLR

## OB(O)c1ccccc1 [PHENYLBORONIC ACID]
  Ki: 820 µM

## NS(=O)(=O)O [SULFAMATE]
  Ki: 90 µM
